Counter-ions that a name gives are not always drawn.

We go through 25 molecules from US12286435B2, “Compound having benzo seven-membered ring structure, preparation method therefor, and use thereof” (BIONNA (BEIJING) MEDICAL TECHNOLOGY CO., LTD., priority 2019, dated 2025).

Test [1] addresses BRD4 BD2 protein (Homo sapiens (Human), UniProt O60885). Put plainly: Fluorescence polarization binding affinity (Ki) with BRD4 BD2 protein. The note with it: fluorescence polarization; Ki calculated from IC50.
Test [2] has as its target BRD4 BD1 protein (Homo sapiens (Human), UniProt O60885). Put plainly: Fluorescence polarization binding affinity (Ki) with BRD4 BD1 protein. The conditions noted are these: fluorescence polarization; Ki calculated from IC50.

Regarding `Cc1nnn2c1-c1ccc(C3CCNCC3)cc1C(Nc1ccc(Cl)cc1)CC2` (centres unmarked) [BF169, N-(4-chlorophenyl)-1-methyl-9-(piperidin-4-yl)-6,7-dihydro-5H-benzo[c][1,2,3]triazolo[1,5-a]azepin-7-amine hydrochloride], the figures for the inhibitory constant (Ki) in test [1] and in test [2] were 661 nM and above 20000 nM, respectively.
For `Cc1nnn2c1-c1ccc(C3CCN(C)CC3)cc1C(Nc1ccc(Cl)cc1)CC2` (centres unmarked) [BF178, N-(4-chlorophenyl)-1-methyl-9-(1-methylpiperidin-4-yl)-6,7-dihydro-5H-benzo[c][1,2,3]triazolo[1,5-a]azepin-7-amine], the Ki in test [1] and in test [2] was above 20000 nM throughout.
Regarding `Cc1nnn2c1-c1ccc(C3=CCNCC3)cc1C(Nc1cc(F)cc(Cl)c1)CC2` (centres unmarked) [BH06, N-(3-chloro-5-fluorophenyl)-1-methyl-9-(1,2,3,6-tetrahydropyridin-4-yl)-6,7-dihydro-5H-benzo[c][1,2,3]triazolo[1,5-a]azepin-7-amine 2,2,2-trifluoroacetate], the Ki was 35.7 nM in test [1] and 596 nM in test [2].
In the case of `COc1cccc(NC2CCn3nnc(C)c3-c3ccc(C4=CCN(C)CC4)cc32)c1` (centres unmarked) [BH23, N-(3-methoxyphenyl)-1-methyl-9-(1-methyl-1,2,3,6-tetrahydropyridin-4-yl)-6,7-dihydro-5H-benzo[c][1,2,3]triazolo[1,5-a]azepin-7-amine 2,2,2-trifluoroacetate], the Ki in test [1] was 75.3 nM; in test [2], 751 nM.
On the same counts, the results for `COc1cccc(NC2CCn3nnc(C)c3-c3ccc(C4=CCN(C(C)=O)CC4)cc32)c1` (centres unmarked) [BH27, 1-(4-(7-((3-methoxyphenyl)amino)-1-methyl-6,7-dihydro-5H-benzo[c][1,2,3]triazolo[1,5-a]azepin-9-yl)-3,6-dihydropyridin-1(2H)-yl)ethan-1-one] are 2.95 nM and 70.1 nM.
For `Cc1nnn2c1-c1ccc(C3=CCN(C)CC3)cc1C(Oc1cccc(Cl)c1)CC2` (centres unmarked) [BH43, 7-(3-chlorophenoxy)-1-methyl-9-(1-methyl-1,2,3,6-tetrahydropyridin-4-yl)-6,7-dihydro-5H-benzo[c][1,2,3]triazolo[1,5-a]azepine 2,2,2-trifluoroacetate], in that order: 316 nM and above 100000 nM.
On the same counts, the results for `Cc1nnn2c1-c1ccc(-c3cnn(C)c3)cc1C(NC1CCCCC1)CC2` (centres unmarked) [BH46, N-cyclohexyl-1-methyl-9-(1-methyl-1H-pyrazol-4-yl)-6,7-dihydro-5H-benzo[c][1,2,3]triazolo[1,5-a]azepin-7-amine 2,2,2-trifluoroacetate] are 907 nM and 689 nM.
`CC(=O)N1CC=C(c2ccc3c(c2)C(Oc2cccc(Cl)c2)CCn2nnc(C)c2-3)CC1` (centres unmarked) [BH81, 1-(4-(7-(3-chlorophenoxy)-1-methyl-6,7-dihydro-5H-benzo[c][1,2,3]triazolo[1,5-a]azepin-9-yl)-3,6-dihydropyridin-1(2H)-yl)ethan-1-one]: the Ki in test [1] is 31.1 nM; in test [2], 869 nM.
`CCC(=O)N1CC=C(c2ccc3c(c2)C(Nc2cccc(Cl)c2)CCn2nnc(C)c2-3)CC1` (centres unmarked) [BH86, 1-(4-(7-((3-chlorophenyl)amino)-1-methyl-6,7-dihydro-5H-benzo[c][1,2,3]triazolo[1,5-a]azepin-9-yl)-3,6-dihydropyridin-1(2H)-yl)propan-1-one]: the Ki in test [1] is 6.43 nM; in test [2] it was 9.51 nM.
Consider `CCC(C)N1CC=C(c2ccc3c(c2)C(Nc2cccc(Cl)c2)CCn2nnc(C)c2-3)CC1` (centres unmarked) [BH87, 9-(1-(sec-butyl)-1,2,3,6-tetrahydropyridin-4-yl)-N-(3-chlorophenyl)-1-methyl-6,7-dihydro-5H-benzo[c][1,2,3]triazolo[1,5-a]azepin-7-amine 2,2,2-trifluoroacetate], for which the Ki in test [1] is 44.5 nM; in test [2] it was 1100 nM.
`Cc1nnn2c1-c1ccc(C3=CCN(C4CCCC4)CC3)cc1C(Nc1cccc(Cl)c1)CC2` (centres unmarked) [BH107, N-(3-chlorophenyl)-9-(1-cyclopentyl-1,2,3,6-tetrahydropyridin-4-yl)-1-methyl-6,7-dihydro-5H-benzo[c][1,2,3]triazolo[1,5-a]azepin-7-amine 2,2,2-trifluoroacetate]: the results for the Ki in test [1] and in test [2] were 17.6 nM and 1740 nM, respectively.
On the same counts, the results for `CCCN1CC=C(c2ccc3c(c2)C(Nc2cccc(Cl)c2)CCn2nnc(C)c2-3)CC1` (centres unmarked) [BH120, N-(3-chlorophenyl)-1-methyl-9-(1-propyl-1,2,3,6-tetrahydropyridin-4-yl)-6,7-dihydro-5H-benzo[c][1,2,3]triazolo[1,5-a]azepin-7-amine 2,2,2-trifluoroacetate] are 21.9 nM and 583 nM.
As to `Cc1nnn2c1-c1ccc(C3=CCN(C(=O)C4CC4)CC3)cc1C(Nc1cccc(Cl)c1)CC2` (centres unmarked) [BH123, (4-(7-((3-chlorophenyl)amino)-1-methyl-6,7-dihydro-5H-benzo[c][1,2,3]triazolo[1,5-a]azepin-9-yl)-3,6-dihydropyridin-1 (2H)-yl) (cyclopropyl)methanone], the Ki in test [1] was 7.64 nM; in test [2], 46.7 nM.
On the same counts, the results for `Cc1nnn2c1-c1ccc(C3=CCN(C4CCC4)CC3)cc1C(Nc1ccc(F)c(Cl)c1)CC2` (centres unmarked) [BI23, N-(3-chloro-4-fluorophenyl)-9-(1-cyclobutyl-1,2,3,6-tetrahydropyridin-4-yl)-1-methyl-6,7-dihydro-5H-benzo[c][1,2,3]triazolo[1,5-a]azepin-7-amine 2,2,2-trifluoroacetate] are 57.3 nM and 1060 nM.
On to `Cc1nnn2c1-c1ccc(C3=CCN(C(C)C)CC3)cc1C(Nc1ccc(F)c(Cl)c1)CC2` (centres unmarked) [BI24, N-(3-chloro-4-fluorophenyl)-9-(1-isopropyl-1,2,3,6-tetrahydropyridin-4-yl)-1-methyl-6,7-dihydro-5H-benzo[c][1,2,3]triazolo[1,5-a]azepin-7-amine 2,2,2-trifluoroacetate], for which the inhibition constant Ki in test [1] was 86.4 nM; in test [2], 5410 nM.
For `Cc1nnn2c1-c1ccc(C3=CCN(C4CCC4)CC3)cc1C(Nc1cc(Cl)ccc1F)CC2` (centres unmarked) [BI26, N-(5-chloro-2-fluorophenyl)-9-(1-cyclobutyl-1,2,3,6-tetrahydropyridin-4-yl)-1-methyl-6,7-dihydro-5H-benzo[c][1,2,3]triazolo[1,5-a]azepin-7-amine 2,2,2-trifluoroacetate], in that order: 45.4 nM and 861 nM.
On the same counts, the results for `Cc1nnn2c1-c1ccc(C3=CCN(C4CCCCC4)CC3)cc1C(Nc1cccc(C#N)c1)CC2` (centres unmarked) [BI29, 3-((9-(1-cyclohexyl-1,2,3,6-tetrahydropyridin-4-yl)-1-methyl-6,7-dihydro-5H-benzo[c][1,2,3]triazolo[1,5-a]azepin-7-yl)amino)benzonitrile 2,2,2-trifluoroacetate] are 168 nM and 2660 nM.
For `Cc1nnn2c1-c1ccc(C3=CCN(C4CCCC4)CC3)cc1C(Nc1cccc(C#N)c1)CC2` (centres unmarked) [BI31, 3-((9-(1-cyclopentyl-1,2,3,6-tetrahydropyridin-4-yl)-1-methyl-6,7-dihydro-5H-benzo[c][1,2,3]triazolo[1,5-a]azepin-7-yl)amino)benzonitrile 2,2,2-trifluoroacetate], in that order: 151 nM and 2290 nM.
Regarding `Cc1nnn2c1-c1ccc(C3=CCN(C(C)C)CC3)cc1C(Nc1cccc(C#N)c1)CC2` (centres unmarked) [BI34, 3-((9-(1-isopropyl-1,2,3,6-tetrahydropyridin-4-yl)-1-methyl-6,7-dihydro-5H-benzo[c][1,2,3]triazolo[1,5-a]azepine7-yl)amino)benzonitrile 2,2,2-trifluoroacetate], the Ki in test [1] is 291 nM; in test [2] it was 4200 nM.
Turning to `Cc1nnn2c1-c1ccc(C3=CCN(C4CCC4)CC3)cc1C(Nc1cccc(C#N)c1)CC2` (centres unmarked) [BI36, 3-(((9-(1-cyclobutyl-1,2,3,6-tetrahydropyridin-4-yl))-1-methyl-6,7-dihydro-5H-benzo[c][1,2,3]triazolo[1,5-a]azepin-7-yl)amino)benzonitrile 2,2,2-trifluoroacetate], the Ki in test [1] is 89.8 nM; in test [2], 1850 nM.
For `CCN1CC=C(c2ccc3c(c2)C(Nc2cccc(C#N)c2)CCn2nnc(C)c2-3)CC1` (centres unmarked) [BI37, 3-((9-(1-ethyl-1,2,3,6-tetrahydropyridin-4-yl)-1-methyl-6,7-dihydro-5H-benzo[c][1,2,3]triazolo[1,5-a]azepin-7-yl)amino)benzonitrile 2,2,2-trifluoroacetate], in that order: 196 nM and 2570 nM.
On to `Cc1nnn2c1-c1ccc(C3=CCN(C4CCCC4)CC3)cc1C(Nc1cccc(S(C)(=O)=O)c1)CC2` (centres unmarked) [BI55, 9-(1-cyclopentyl-1,2,3,6-tetrahydropyridin-4-yl)-1-methyl-N-(3-(methylsulfonyl)phenyl)-6,7-dihydro-5H-benzo[c][1,2,3]triazolo[1,5-a]azepin-7-amine 2,2,2-trifluoroacetate], for which the Ki is 116 nM in test [1] and 3100 nM in test [2].
For the molecule `Cc1nnn2c1-c1ccc(C3=CCN(C4CCCCC4)CC3)cc1C(Nc1cccc(S(C)(=O)=O)c1)CC2` (centres unmarked) [BI57, 9-(1-cyclohexyl-1,2,3,6-tetrahydropyridin-4-yl)-1-methyl-N-(3-(methylsulfonyl)phenyl)-6,7-dihydro-5H-benzo[c][1,2,3]triazolo[1,5-a]azepin-7-amine 2,2,2-trifluoroacetate], the figures for the inhibition constant Ki in test [1] and in test [2] were 147 nM and 3610 nM, respectively.
On the same counts, the results for `Cc1nnn2c1-c1ccc(C3=CCN(C(C)C)CC3)cc1C(Nc1cccc(S(C)(=O)=O)c1)CC2` (centres unmarked) [BI60, 9-(1-isopropyl-1,2,3,6-tetrahydropyridin-4-yl)-1-methyl-N-(3-(methylsulfonyl)phenyl)-6,7-dihydro-5H-benzo[c][1,2,3]triazolo[1,5-a]azepin-7-amine 2,2,2-trifluoroacetate] are 307 nM and 4740 nM.
For `Cc1nnn2c1-c1ccc(C3=CCN(C4CCC4)CC3)cc1C(Nc1cccc(S(C)(=O)=O)c1)CC2` (centres unmarked) [BI61, 9-(1-cyclobutyl-1,2,3,6-tetrahydropyridin-4-yl)-1-methyl-N-(3-(methylsulfonyl)phenyl)-6,7-dihydro-5H-benzo[c][1,2,3]triazolo[1,5-a]azepin-7-amine 2,2,2-trifluoroacetate], in that order: 148 nM and 3200 nM.
